This is an account of results in ChEMBL document CHEMBL4706647, “Development and optimization of halogenated vinyl sulfones as Nrf2 activators for the treatment of Parkinson's disease” (Eur J Med Chem, 2021).

Voltage-gated inwardly rectifying potassium channel KCNH2, sequence (Q12809 whole entry): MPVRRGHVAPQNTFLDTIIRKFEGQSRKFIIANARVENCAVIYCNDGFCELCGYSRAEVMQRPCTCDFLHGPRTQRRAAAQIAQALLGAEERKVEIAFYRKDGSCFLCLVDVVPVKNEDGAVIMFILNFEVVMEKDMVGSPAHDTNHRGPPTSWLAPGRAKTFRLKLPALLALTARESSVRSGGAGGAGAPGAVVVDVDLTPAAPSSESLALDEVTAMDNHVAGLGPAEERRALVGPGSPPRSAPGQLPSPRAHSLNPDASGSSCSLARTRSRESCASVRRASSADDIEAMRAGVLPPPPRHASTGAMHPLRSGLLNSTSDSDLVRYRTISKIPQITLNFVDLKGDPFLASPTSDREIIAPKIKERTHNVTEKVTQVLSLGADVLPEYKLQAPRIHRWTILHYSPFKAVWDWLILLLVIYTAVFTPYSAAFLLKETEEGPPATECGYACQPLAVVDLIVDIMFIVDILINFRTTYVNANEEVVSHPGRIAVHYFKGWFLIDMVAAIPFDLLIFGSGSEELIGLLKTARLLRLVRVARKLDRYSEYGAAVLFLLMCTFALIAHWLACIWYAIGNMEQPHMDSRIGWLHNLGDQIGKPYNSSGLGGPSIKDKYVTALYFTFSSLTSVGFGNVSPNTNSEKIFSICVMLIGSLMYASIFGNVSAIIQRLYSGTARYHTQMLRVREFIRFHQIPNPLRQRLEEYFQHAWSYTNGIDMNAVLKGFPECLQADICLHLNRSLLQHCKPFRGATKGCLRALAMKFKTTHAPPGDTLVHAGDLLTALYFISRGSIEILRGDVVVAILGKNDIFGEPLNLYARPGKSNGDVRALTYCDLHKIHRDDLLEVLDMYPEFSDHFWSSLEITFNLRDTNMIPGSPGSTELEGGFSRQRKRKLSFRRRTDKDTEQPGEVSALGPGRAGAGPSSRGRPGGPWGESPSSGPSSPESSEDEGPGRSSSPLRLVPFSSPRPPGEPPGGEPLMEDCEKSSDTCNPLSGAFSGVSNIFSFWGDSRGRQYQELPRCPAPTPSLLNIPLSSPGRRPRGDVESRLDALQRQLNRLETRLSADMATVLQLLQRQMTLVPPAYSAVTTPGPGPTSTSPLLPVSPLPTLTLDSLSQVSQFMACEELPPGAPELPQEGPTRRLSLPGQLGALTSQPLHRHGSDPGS

System in the first series: not listed separately
The experiment in a line: Stability in human plasma assessed as parent compound remaining after 30 mins by LC-MS/MS analysis. The note with it: read-out: Stabilty. Format: ADME, cell-free.
Consider `COc1ccccc1S(=O)(=O)/C=C/c1ccccc1Cl`, for which the remaining at 0.5 h turned out to be 86.1%.

The target of another series is CYP2C9 (Homo sapiens, UniProt P11712). The experiment in a line: Inhibition of CYP2C9 (unknown origin) assessed as residual activity. Type of series: ADME.
CYP2C9, sequence (P11712 whole entry): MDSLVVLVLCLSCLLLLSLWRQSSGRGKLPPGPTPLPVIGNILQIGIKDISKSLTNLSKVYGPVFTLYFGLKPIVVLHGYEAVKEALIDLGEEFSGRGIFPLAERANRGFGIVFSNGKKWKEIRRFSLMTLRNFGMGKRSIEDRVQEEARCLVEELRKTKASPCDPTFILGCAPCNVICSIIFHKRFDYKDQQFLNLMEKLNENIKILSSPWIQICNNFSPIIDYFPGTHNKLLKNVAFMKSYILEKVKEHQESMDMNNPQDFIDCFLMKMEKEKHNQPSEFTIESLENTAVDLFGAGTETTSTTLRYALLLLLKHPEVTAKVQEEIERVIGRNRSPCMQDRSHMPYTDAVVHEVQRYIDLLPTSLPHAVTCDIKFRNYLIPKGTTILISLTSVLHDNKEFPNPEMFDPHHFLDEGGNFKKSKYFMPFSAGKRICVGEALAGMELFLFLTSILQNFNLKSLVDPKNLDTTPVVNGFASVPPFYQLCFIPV
Settings: not given
Turning to `COc1ccccc1S(=O)(=O)/C=C/c1ccccc1Cl`, the activity stood at 100%.

System in another series: not listed separately
Put plainly: Cytotoxicity against mouse BV-2 cells assessed cell viability at 10 uM measured after 6 hrs by Ez-cytox reagent based assay relative to control. The note with it: read-out: Activity.
For the molecule `COc1ccccc1S(=O)(=O)/C=C/c1ccccc1Cl`, the viability at 6 h, 10 µM was 90.1%.

The target of the next series is T1, Nuclear factor erythroid 2-related factor 2 (Homo sapiens, UniProt Q16236).
T1 sequence (Q16236 whole entry): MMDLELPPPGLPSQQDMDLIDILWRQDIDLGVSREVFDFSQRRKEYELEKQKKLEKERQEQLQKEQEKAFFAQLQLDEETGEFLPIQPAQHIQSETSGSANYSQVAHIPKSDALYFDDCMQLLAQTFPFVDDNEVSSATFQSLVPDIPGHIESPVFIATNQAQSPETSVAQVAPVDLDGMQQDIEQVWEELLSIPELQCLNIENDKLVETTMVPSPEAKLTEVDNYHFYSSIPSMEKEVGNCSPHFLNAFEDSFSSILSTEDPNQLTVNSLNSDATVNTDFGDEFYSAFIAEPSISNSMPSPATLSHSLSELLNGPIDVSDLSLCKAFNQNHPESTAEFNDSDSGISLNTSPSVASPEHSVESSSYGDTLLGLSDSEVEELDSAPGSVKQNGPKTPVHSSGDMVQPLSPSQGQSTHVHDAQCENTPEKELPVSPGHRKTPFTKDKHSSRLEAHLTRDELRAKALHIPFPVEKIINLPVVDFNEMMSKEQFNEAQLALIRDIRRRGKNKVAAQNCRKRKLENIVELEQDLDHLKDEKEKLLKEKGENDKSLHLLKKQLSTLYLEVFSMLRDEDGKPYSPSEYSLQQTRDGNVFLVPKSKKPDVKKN
Put plainly: Activation of Nrf2 (unknown origin) expressed in human U2OS cells co-expressing Keap1 assessed as increase in Nrf2 nuclear translocation incubated for 6 hrs under dark condition by pathhunter assay. Type of series: cell-based.
Settings: not given
With `O=S(=O)(/C=C/c1ccccn1)c1ccccc1Cl`, the half-maximal effective concentration (EC50) turned out to be 618 nM. Still for that read-out and setting: in the case of `O=S(=O)(/C=C/c1ncccc1Cl)c1cccc(Cl)c1` it was 46 nM. On the same count and under the same terms, in the case of `O=S(=O)(/C=C\c1ncccc1Cl)c1ccccc1Cl` it was 1100 nM; in that of `O=S(=O)(/C=C/c1ccncc1)c1ccccc1Cl`, 781 nM.

As to `O=S(=O)(/C=C\c1cccc(Cl)n1)c1ccccc1Cl`, the EC50 worked out at 147 nM. As to `O=S(=O)(/C=C/c1ccc(Cl)nc1)c1ccc(Cl)cc1`, the concentration giving a half-maximal response (EC50) is greater than 10000 nM.

Take `O=S(=O)(/C=C/c1cccnc1Cl)c1cccc(Cl)c1`: the EC50 is 213 nM. On to `O=S(=O)(/C=C/c1ccc(Cl)nc1)c1ccccc1F`, for which the half-maximal effective concentration (EC50) was 2550 nM. Turning to `O=S(=O)(/C=C\c1ncccc1Cl)c1ccccc1F`, the EC50 stood at 1030 nM. The same measure, in the same setting: in the case of `O=S(=O)(/C=C/c1ncccc1Cl)c1ccc(Cl)cc1` it was 65 nM; in that of `O=S(=O)(/C=C/c1ncccc1F)c1ccc(Cl)cc1`, 286 nM. The same measure, in the same setting: under `O=S(=O)(/C=C/c1cccnc1)c1ccccc1Cl` stands 2850 nM; under `O=S(=O)(/C=C\c1ccc(Cl)nc1)c1cccc(F)c1`, 965 nM.

With `O=S(=O)(/C=C/c1ccncc1)c1cccc(F)c1`, the 50% effective concentration (EC50) stood at 950 nM. Regarding `O=S(=O)(/C=C/c1ccccn1)c1cccc(F)c1`, the EC50 amounted to 1680 nM. On to `O=S(=O)(/C=C/c1cccc(Cl)n1)c1ccc(F)cc1`, for which the EC50 came to 2790 nM.

On to `O=S(=O)(/C=C/c1cccnc1Cl)c1ccccc1Cl`, for which the half-maximal effective concentration (EC50) came out at 192 nM. Turning to `O=S(=O)(/C=C\c1cccnc1Cl)c1ccccc1F`, the concentration for a half-maximal effect (EC50) was 3390 nM.

Take `O=S(=O)(/C=C/c1cccnc1)c1cccc(Cl)c1`: the half-maximal effective concentration (EC50) was found to be 3520 nM. Same read-out and setting: in the case of `O=S(=O)(/C=C\c1ncccc1Cl)c1cccc(Cl)c1` it was 290 nM; in that of `O=S(=O)(/C=C/c1ccc(Cl)nc1)c1cccc(F)c1`, 4870 nM; in that of `O=S(=O)(/C=C/c1ncccc1Cl)c1ccccc1F`, 30 nM. Same read-out and setting: under `O=S(=O)(/C=C/c1cccc(Cl)n1)c1cccc(Cl)c1` stands 1070 nM; under `O=S(=O)(/C=C/c1cccnc1Cl)c1ccc(F)cc1`, 339 nM; under `O=S(=O)(/C=C\c1ncccc1F)c1ccccc1F`, 482 nM. As to `O=S(=O)(/C=C/c1ccc(Cl)cn1)c1ccccc1F`, the EC50 stood at 1040 nM. Regarding `O=S(=O)(/C=C/c1ccccn1)c1ccccc1F`, the EC50 was 1050 nM. Consider `O=S(=O)(/C=C/c1ccccn1)c1cccc(Cl)c1`, for which the EC50 worked out at 1430 nM.

In the case of `O=S(=O)(/C=C/c1cccnc1Cl)c1cccc(F)c1`, the EC50 was determined as 328 nM.

As to `O=S(=O)(/C=C/c1ncccc1F)c1ccccc1Cl`, the half-maximal effective concentration (EC50) came to 122 nM. Same read-out and setting: in the case of `O=S(=O)(/C=C/c1cccnc1Cl)c1ccc(Cl)cc1` it was 305 nM; in that of `O=S(=O)(/C=C/c1ncccc1F)c1cccc(Cl)c1`, 198 nM; in that of `O=S(=O)(/C=C\c1cccnc1)c1cccc(F)c1`, 4820 nM. Still for that read-out and setting: in the case of `O=S(=O)(/C=C/c1cccnc1Cl)c1ccccc1F` it was 217 nM; in that of `O=S(=O)(/C=C/c1ncccc1F)c1cccc(F)c1`, 474 nM.

Turning to `O=S(=O)(/C=C/c1ccc(Cl)nc1)c1cccc(Cl)c1`, the EC50 stood at 2210 nM.

Regarding `O=S(=O)(/C=C/c1ncccc1Cl)c1ccc(F)cc1`, the concentration for a half-maximal effect (EC50) was 231 nM.

As for `O=S(=O)(/C=C/c1ccc(Cl)cn1)c1cccc(Cl)c1`, the half-maximal effective concentration (EC50) came out at 1510 nM. In the case of `O=S(=O)(/C=C\c1ncccc1Cl)c1ccc(Cl)cc1`, the EC50 worked out at 1750 nM. Still for that read-out and setting: under `O=S(=O)(/C=C/c1ccc(Cl)cn1)c1cccc(F)c1` stands 2500 nM. For `O=S(=O)(/C=C/c1ncccc1F)c1ccccc1F`, the 50% effective concentration (EC50) amounted to 176 nM. Same read-out and setting: in the case of `O=S(=O)(/C=C\c1ncccc1F)c1cccc(Cl)c1` it was 252 nM. Consider `O=S(=O)(/C=C/c1cccc(Cl)n1)c1ccc(Cl)cc1`, for which the concentration giving a half-maximal response (EC50) was determined as 1460 nM.

With `O=S(=O)(/C=C/c1ccncc1)c1cccc(Cl)c1`, the EC50 was determined as 528 nM.

Consider `O=S(=O)(/C=C/c1ccccn1)c1ccc(Cl)cc1`, for which the 50% effective concentration (EC50) is 1730 nM. Still for that read-out and setting: under `O=S(=O)(/C=C/c1cccnc1)c1ccccc1F` stands 6850 nM; under `O=S(=O)(/C=C/c1ccc(Cl)nc1)c1ccccc1Cl`, 1630 nM.

On to `O=S(=O)(/C=C\c1ncccc1F)c1ccccc1Cl`, for which the EC50 came to 583 nM. With `O=S(=O)(/C=C/c1ccc(Cl)cn1)c1ccc(Cl)cc1`, the concentration giving a half-maximal response (EC50) came out at 3160 nM.

Consider `O=S(=O)(/C=C/c1ccncc1)c1ccccc1F`, for which the EC50 is 760 nM. The same measure, in the same setting: under `O=S(=O)(/C=C\c1ccc(Cl)nc1)c1cccc(Cl)c1` stands 3390 nM; under `O=S(=O)(/C=C/c1ccccn1)c1ccc(F)cc1`, 3100 nM. On the same count and under the same terms, under `O=S(=O)(/C=C/c1cccc(Cl)n1)c1ccccc1F` stands 898 nM; under `O=S(=O)(/C=C/c1ccc(Cl)cn1)c1ccccc1Cl`, 2940 nM. Same read-out and setting: in the case of `O=S(=O)(/C=C/c1ccc(Cl)cn1)c1ccc(F)cc1` it was 4370 nM; in that of `O=S(=O)(/C=C\c1cccnc1Cl)c1ccccc1Cl`, 384 nM; in that of `O=S(=O)(/C=C/c1ncccc1F)c1ccc(F)cc1`, 542 nM. As for `O=S(=O)(/C=C/c1ccc(Cl)nc1)c1ccc(F)cc1`, the EC50 was greater than 10000 nM.

The next series addresses Voltage-gated inwardly rectifying potassium channel KCNH2 (Homo sapiens, UniProt Q12809). Put plainly: Inhibition of fluorescence tracer red binding to human ERG measured after 4 hrs by fluorescence polarization assay.
Settings: not given
(Polarisation of emitted light reports the rotation of a fluorescent probe.)
Molecule `COc1ccccc1S(=O)(=O)/C=C/c1ccccc1Cl` had an IC50 of 12000 nM. This lies in the double-digit micromolar range.

By EC50 is commonly meant the concentration at which the effect is half-maximal. As a reminder, the IC50 is the concentration that inhibits the measured activity by half.
